PMC5971061, “Differential Effects of Linkers on the Activity of Amphiphilic Tobramycin Antifungals” (Molecules : A Journal of Synthetic Chemistry and Natural …, 2018)
≈ marks a conversion by molar mass, not a printed value. Where two headings read alike, the source gives them in different places.

Tests used:
[1] = tested on: Aspergillus terreus ATCC MYA-3633 (strain M); experiment: MIC, filamentous fungi (CLSI M38-A2), strain M; type: cell-based; settings: MIC-0, strain M, 35 °C 72 h
Description: (§1) The spores were harvested from sporulating cultures growing on potato dextrose agar (PDA) by filtration through sterile glass wool and enumerated by using a hemocytometer (Hausser Scientific, Horsham, PA, USA) to obtain the desired inoculum size. Two-fold serial dilutions of compounds 3, 4, 7a, 7b, 9, and 16, as well as CAS and TOB were made in sterile 96-well microtiter plates to obtain the final concentration range of 0.24–62.5 μg/mL for TOB and TOB derivatives as well as 0.03–31.3 μg/mL for CAS in the RPMI 1640 medium. The spore suspensions were added to the wells to afford a final concentration of 5 × 10^5 spores/mL. The plates were incubated at 35 °C for 72 h. […] Each test was performed in triplicate.

[2] = tested on: Candida parapsilosis clinical isolate CP1; experiment: MIC, broth microdilution (CLSI M27-A3), CP1; type: cell-based; settings: Lodderomyces parapsilosis; MIC-0, CP1, 35 °C 48 h
Description: (§2) The final concentrations of compounds 3, 4, 7a, 7b, 9, and 16, as well as that of TOB tested in this study ranged from 0.24–62.5 μg/mL. CAS was used as a positive control and the final concentrations tested for CAS ranged from 0.03–31.3 μg/mL. Briefly, overnight yeast cultures were grown in yeast peptone dextrose (YPD) broth and the cell density was adjusted to an OD600 of 0.12 (~1 × 10^6 CFU/mL) by using a spectrophotometer. Yeast cell suspensions were further diluted to achieve 1–5 × 10^3 CFU/mL in RPMI 1640 medium, and 100 μL of these yeast cells was added to 96-well microtiter plates containing RPMI 1640 medium and titrated compounds. Each test was performed in triplicate. The plates were incubated at 35 °C for 48 h.

[3] = tested on: C. albicans ATCC 10231 (strain A); experiment: MIC, broth microdilution (CLSI M27-A3), yeast strain A; type: cell-based, Candida albicans; settings: Candida albicans, ATCC10231; MIC-0, strain A, 35 °C 48 h
Description: as §2

[4] = tested on: seven C. albicans strains (A-G); experiment: MIC across the panel of seven C. albicans strains; type: cell-based; settings: Candida albicans; across all seven C. albicans strains tested
Description: as §2

[5] = tested on: Candida glabrata clinical isolate CG3; experiment: MIC, broth microdilution (CLSI M27-A3), CG3; type: cell-based; settings: Nakaseomyces glabratus; MIC-0, CG3, 35 °C 48 h
Description: as §2

[6] = tested on: nine non-albicans Candida strains (H-J, CG1-3, CP1-3); experiment: MIC across the panel of nine non-albicans Candida strains; type: cell-based, Candida glabrata, Candida krusei, Candida parapsilosis
Description: as §2

[7] = tested on: Cryptococcus neoformans clinical isolate CN3; experiment: MIC, broth microdilution (CLSI M27-A3), CN3; type: cell-based; settings: MIC-0, CN3, 35 °C 48 h
Description: as §2

[8] = tested on: C. albicans ATCC 90819(R) (strain D); experiment: MIC, broth microdilution (CLSI M27-A3), yeast strain D; type: cell-based; settings: Candida albicans, ATCC90819; MIC-0, strain D, 35 °C 48 h
Description: as §2

[9] = tested on: C. albicans ATCC MYA-2310(S) (strain E); experiment: MIC, broth microdilution (CLSI M27-A3), yeast strain E; type: cell-based; settings: Candida albicans; MIC-0, strain E, 35 °C 48 h
Description: as §2

[10] = tested on: C. albicans ATCC MYA-1003(R) (strain G); experiment: MIC, broth microdilution (CLSI M27-A3), yeast strain G; type: cell-based; settings: Candida albicans; MIC-0, strain G, 35 °C 48 h
Description: as §2

[11] = tested on: Candida parapsilosis ATCC 22019 (strain J); experiment: MIC, broth microdilution (CLSI M27-A3), yeast strain J; type: cell-based; settings: Lodderomyces parapsilosis, ATCC22019; MIC-0, strain J, 35 °C 48 h
Description: as §2

[12] = tested on: Candida glabrata clinical isolate CG2; experiment: MIC, broth microdilution (CLSI M27-A3), CG2; type: cell-based; settings: Nakaseomyces glabratus; MIC-0, CG2, 35 °C 48 h
Description: as §2

[13] = tested on: Candida glabrata ATCC 2001 (strain H); experiment: MIC, broth microdilution (CLSI M27-A3), yeast strain H; type: cell-based; settings: Nakaseomyces glabratus, ATCC2001; MIC-0, strain H, 35 °C 48 h
Description: as §2

[14] = tested on: Candida parapsilosis clinical isolate CP3; experiment: MIC, broth microdilution (CLSI M27-A3), CP3; type: cell-based; settings: MIC-0, CP3, 35 °C 48 h
Description: as §2

[15] = tested on: C. albicans ATCC MYA-1237(R) (strain F); experiment: MIC, broth microdilution (CLSI M27-A3), yeast strain F; type: cell-based; settings: Candida albicans; MIC-0, strain F, 35 °C 48 h
Description: as §2

[16] = tested on: Candida krusei ATCC 6258 (strain I); experiment: MIC, broth microdilution (CLSI M27-A3), yeast strain I; type: cell-based; settings: Pichia kudriavzevii, ATCC6258; MIC-0, strain I, 35 °C 48 h
Description: as §2

[17] = tested on: Candida parapsilosis clinical isolate CP2; experiment: MIC, broth microdilution (CLSI M27-A3), CP2; type: cell-based; settings: Lodderomyces parapsilosis; MIC-0, CP2, 35 °C 48 h
Description: as §2

Hemolytic activity assay = type: cell-based, murine; settings: mouse, murine red blood cells (mRBCs); for hemolysis at 1 h, 0.48 μg/mL / hemolysis at 1 h, 0.975 μg/mL / hemolysis at 1 h, 1.95 μg/mL / hemolysis at 1 h, 3.9 μg/mL / hemolysis at 1 h, 7.8 μg/mL / hemolysis at 1 h, 15.6 μg/mL / hemolysis at 1 h, 31.3 μg/mL / hemolysis at 1 h, 62.5 μg/mL: mRBCs, 37 °C 1 h, ± SDEV
Description: The hemolytic activity of compounds 3, 4, 7a, 7b, and 9 as well as the parent compound TOB was determined by using previously described methods with minor modifications. Murine whole blood (1 mL) was suspended in 4 mL of PBS and centrifuged at 1000 rpm for 10 min at room temperature to obtain murine red blood cells (mRBCs). The mRBCs were washed four times in PBS and resuspended in the same buffer to a final concentration of 10^7 erythrocytes/mL. Two-fold serial dilutions of compounds 3, 4, 7a, 7b, and 9 were prepared using 100 μL of PBS buffer in Eppendorf tubes followed by the addition of 100 μL of mRBC suspension that made the final concentration of compounds and mRBCs to be 0.48–62.5 μg/mL and 5 × 10^6 erythrocytes/mL, respectively. The tubes were incubated at 37 °C for 1 h. The tubes with PBS buffer (200 μL) and Triton X-100® (1% v/v, 2 μL) served as the negative (blank) and positive controls, respectively. The percentage of hemolysis was calculated using the following equation: % hemolysis = [(absorbance of sample) − (absorbance of blank)] × 100/(absorbance of positive control).

[18] = tested on: Aspergillus nidulans ATCC 38163 (strain L); experiment: MIC, filamentous fungi (CLSI M38-A2), strain L; type: cell-based; settings: MIC-0, strain L, 35 °C 72 h
Description: as §1

[19] = tested on: Candida glabrata clinical isolate CG1; experiment: MIC, broth microdilution (CLSI M27-A3), CG1; type: cell-based; settings: Nakaseomyces glabratus; MIC-0, CG1, 35 °C 48 h
Description: as §2

[20] = Aspergillus nidulans, ATCC38163, 72 h, read-out: MIC

Work on `NC[C@H]1O[C@H](O[C@H]2[C@H](O)[C@@H](O[C@H]3O[C@H](CO)[C@@H](O)[C@H](N)[C@H]3O)[C@H](N)C[C@@H]2N)[C@H](N)C[C@@H]1O` [TOB, tobramycin] yielded an MIC [1] greater than 62.5 µg/mL, an MIC [2] greater than 62.5 µg/mL and an MIC [3] greater than 62.5 µg/mL. The MIC [4] was greater than 62.5 µg/mL, the MIC [5] was greater than 62.5 µg/mL and the MIC [6] was greater than 62.5 µg/mL. For the same compound, the MIC [7] was greater than 62.5 µg/mL, the MIC [8] was greater than 62.5 µg/mL and the MIC [9] was greater than 62.5 µg/mL. The MIC [10] was greater than 62.5 µg/mL, the MIC [11] was greater than 62.5 µg/mL and the MIC [12] was greater than 62.5 µg/mL. For the same compound, the MIC [13] was greater than 62.5 µg/mL, the MIC [14] was greater than 62.5 µg/mL and the MIC [15] was greater than 62.5 µg/mL. The MIC [16] was greater than 62.5 µg/mL, the MIC [17] was greater than 62.5 µg/mL and the hemolysis at 1 h, 0.48 μg/mL (Hemolytic activity assay) was 4.7 ± 3.9%. The hemolysis at 1 h, 0.975 μg/mL (Hemolytic activity assay) was 9.3 ± 3.5%, the hemolysis at 1 h, 1.95 μg/mL (Hemolytic activity assay) was 15.9 ± 1.9% and the hemolysis at 1 h, 3.9 μg/mL (Hemolytic activity assay) was 15.9 ± 8.1%. The hemolysis at 1 h, 7.8 μg/mL (Hemolytic activity assay) was 11.2 ± 4.6%, the hemolysis at 1 h, 15.6 μg/mL (Hemolytic activity assay) was 15.3 ± 5% and the hemolysis at 1 h, 31.3 μg/mL (Hemolytic activity assay) was 15.3 ± 2.7%. It also gave a hemolysis at 1 h, 62.5 μg/mL (Hemolytic activity assay) of 21.1 ± 9.3%, an MIC [18, 20] greater than 62.5 µg/mL and an MIC [19] greater than 62.5 µg/mL.
With `CCCCCCCCCCCC(=O)NC[C@H]1O[C@H](O[C@@H]2[C@@H](O)[C@H](O[C@H]3O[C@H](CN)[C@@H](O)C[C@H]3N)[C@@H](N)C[C@H]2N)[C@H](O)[C@@H](N)[C@@H]1O` [Compound 9, O-3-Amino-3,6-dideoxy-6-[(1-oxododecyl)amino]-α-D-glucopyranosyl-(1→6)-O-[2,6-diamino-2,3,6-trideoxy-α-D-ribo-hexopyranosyl-(1→4)]-2-deoxy-D-streptamine] the MIC [1] was greater than 62.5 µg/mL, the MIC [2] was 31.3 µg/mL (≈ 48.2 µM) and the MIC [3] was 31.3 µg/mL (≈ 48.2 µM). The MIC [4] was 15.6 to 62.5 µg/mL (≈ 24 to 96.3 µM), the MIC [5] was 15.6 µg/mL (≈ 24 µM) and the MIC [6] was 7.8 to 31.3 µg/mL (≈ 12 to 48.2 µM). For the same compound, the MIC [7] was 0.975 µg/mL (≈ 1.5 µM), the MIC [8] was 62.5 µg/mL (≈ 96.3 µM) and the MIC [9] was 31.3 µg/mL (≈ 48.2 µM). For the same compound, the MIC [10] was 31.3 µg/mL (≈ 48.2 µM), the MIC [11] was 7.8 µg/mL (≈ 12 µM) and the MIC [12] was 15.6 µg/mL (≈ 24 µM). For the same compound, the MIC [13] was 31.3 µg/mL (≈ 48.2 µM), the MIC [14] was 31.3 µg/mL (≈ 48.2 µM) and the MIC [15] was 31.3 µg/mL (≈ 48.2 µM). It also gave an MIC [16] of 15.6 µg/mL (≈ 24 µM), an MIC [17] of 15.6 µg/mL (≈ 24 µM) and a hemolysis at 1 h, 0.48 μg/mL (Hemolytic activity assay) of 0%. The hemolysis at 1 h, 0.975 μg/mL (Hemolytic activity assay) was 0%, the hemolysis at 1 h, 1.95 μg/mL (Hemolytic activity assay) was 2.5 ± 1.5% and the hemolysis at 1 h, 3.9 μg/mL (Hemolytic activity assay) was 4.1 ± 1.5%. The hemolysis at 1 h, 7.8 μg/mL (Hemolytic activity assay) was 10.1 ± 4.6%, the hemolysis at 1 h, 15.6 μg/mL (Hemolytic activity assay) was 18.3 ± 5.4% and the hemolysis at 1 h, 31.3 μg/mL (Hemolytic activity assay) was 26 ± 11.6%. It also gave a hemolysis at 1 h, 62.5 μg/mL (Hemolytic activity assay) of 31.5 ± 1.5%, a hemolysis at 1 h (Hemolytic activity assay; at their MIC values against the Aspergillus strains) of 4 to 32% and an MIC [18, 20] of 1.95 to 3.9 µg/mL (≈ 3.01 to 6.01 µM). It also gave an MIC [18] of 3.9 µg/mL (≈ 6.01 µM) and an MIC [19] of 15.6 µg/mL (≈ 24 µM).
